This note sets out measurements from patent publication US8097759B2, “Inflammatory cytokine release inhibitor” (Institute of Medicinal Molecular Design, Inc., priority 2000, dated 2012).

Structures are written as SMILES.

This assay deals with NF-κB activation. The assay is described as follows: NF-κB activation reporter assay (pNFκB-Luc luciferase) under TNF-α stimulation. The class given is cell-based, human. As to conditions: Homo sapiens, HepG2 or HeLa cells, TNF-α 40 ng/ml, 4 hours, read-out: The rate of inhibitory activity against NF-κB activation (%); for inhibition at 1 µg/mL: Concentration of the agent: 1 μg/mL; for inhibition at 10 µg/mL: Concentration of the agent: 10 μg/mL.

With `O=C(Nc1nc(C(F)(F)F)c(Br)s1)c1cc(Br)ccc1O` [Compound 182], the inhibition at 1 µg/mL came out at 85.3% and the inhibition at 10 µg/mL stood at 94.4%.
`CC(C)(C)c1nc(NC(=O)c2cc(Br)ccc2O)sc1C#N` [Compound 184]: the inhibition at 1 µg/mL turned out to be 20% and the inhibition at 10 µg/mL worked out at 93.8%.
On the same counts, the results for `Cc1cnc(NC(=O)c2cc(Br)ccc2O)s1` [Compound 185] are -1.5% and 69.7%.
For `Cc1nc(NC(=O)c2cc(Br)ccc2O)sc1C` [Compound 187], the inhibition at 1 µg/mL turned out to be 4.6% and the inhibition at 10 µg/mL was 67.2%.
On to `Cc1sc(NC(=O)c2cc(Br)ccc2O)nc1-c1ccccc1` [Compound 188], for which the inhibition at 1 µg/mL is 83.6% and the inhibition at 10 µg/mL amounted to 94.4%.
Consider `Cc1nc(NC(=O)c2cc(Br)ccc2O)sc1-c1cccc(C(F)(F)F)c1` [Compound 190], for which the inhibition at 1 µg/mL was -32.4%.
Turning to `CCc1nc(NC(=O)c2cc(Br)ccc2O)sc1-c1ccccc1` [Compound 192], the inhibition at 1 µg/mL came out at 28.8% and the inhibition at 10 µg/mL amounted to 87.6%.
On to `O=C(Nc1nc(-c2ccccc2)cs1)c1cc(Br)ccc1O` [Compound 202], for which the inhibition at 1 µg/mL was -41.8% and the inhibition at 10 µg/mL was 78.8%.
Consider `O=C(O)Cc1sc(NC(=O)c2cc(Br)ccc2O)nc1-c1ccccc1` [Compound 203], for which the inhibition at 1 µg/mL was determined as 2.4% and the inhibition at 10 µg/mL was 72.1%.
On the same counts, the results for `O=C(Nc1nc(-c2ccccc2)c(-c2ccccc2)s1)c1cc(Br)ccc1O` [Compound 204] are -5.3% and 67%.
For `O=C(Nc1nc(Cc2ccccc2)c(-c2ccccc2)s1)c1cc(Br)ccc1O` [Compound 205], in that order: 79.7% and 95%.
On to `O=C(Nc1nc(C(F)(F)F)c(-c2ccccc2)s1)c1cc(Br)ccc1O` [Compound 206], for which the inhibition at 1 µg/mL was determined as 85.1% and the inhibition at 10 µg/mL is 89.4%.
For `CCOC(=O)c1sc(NC(=O)c2cc(Br)ccc2O)nc1C(F)(F)F` [Compound 216], in that order: 87.6% and 96.5%.
On the same counts, the results for `CCOC(=O)c1sc(NC(=O)c2cc(-n3cccc3)ccc2O)nc1-c1ccccc1` [Compound 222] are 74% and 90.1%.
